Experimental data from patent publication US4267192A, “Method for treating inflammation” (priority 1980, dated 1981).
Read-outs that look alike come from different tables or passages of the source.

Key:
[1] = tested on: adjuvant arthritis in rats; test: Adjuvant Arthritis Test, periodic administration (with daily regimen for comparison); conditions: rat; for Increase in Paw Volume 0-16 days (left paw) / Increase in Right Paw Volume (ml.) 0-4 days: mean ± S.E.
Description: Polyarthritis is induced in groups of 6-10 Sprague-Dawley rats weighing between 180-220 g. by a subcutaneous injection into the right paw of dessicated Mycobacterium butyricum or tuberculosis (0.5 mg/0.1 ml.) suspended in light mineral oil. […] Both hind paw volumes (ml.) are measured by mercury plethysmograph on day 0 or at the time of injection of the complete adjuvant. Increases in paw volume (viz. edema) are determined for both paws on days 4 and 16. The change in body weight from day 0 to day 16 is also calculated. Statistical analysis of differences in paw edemas and body weight is performed by using the unpaired. Student's t-test.
Adjuvant arthritis is induced as described in A. above, but drugs are administered only on days 2, 3, 4 or on days 8, 9, 10.

[2] = tested on: rat stomach (gastric ulcers, gastric swelling); format: in vivo, rat (male Charles River, Sprague-Dawley); conditions: for Number of Animals With Gastric Swelling / Number of Animals With Gastric Ulcers: 4 hours after dosing
Description: The rats are divided into groups 6-10 and dosed by the oral route with test compound, on a mg/kg. body weight basis, or vehicle control, 0.5% carboxymethylcellulose, in a volume of 3 ml. per rat. Four hours after dosing, the rats are decapitated and exsanguinated. Stomachs are removed and examined for gastric swelling and then opened and washed for visual inspection of gastric ulcers. Only one lesion or gastric bleeding is necessary for a positive response. Data is reported quantally.

[3] = target: T1, prostaglandin synthetase (Ovis aries, UniProt P05979); test: in vitro prostaglandin synthetase activity assay (PGE2 formation from 14C-arachidonic acid); format: biochemical, sheep; parameters: microsomal fraction of sheep vesicles; from tissue; host or cells: sheep seminal vesicles, microsomal fraction (105,000×g precipitate); conditions: for cpm (× 1000), in vitro PGE2 biosynthesis: sheep seminal vesicle microsomes
T1 sequence (P05979 25-600): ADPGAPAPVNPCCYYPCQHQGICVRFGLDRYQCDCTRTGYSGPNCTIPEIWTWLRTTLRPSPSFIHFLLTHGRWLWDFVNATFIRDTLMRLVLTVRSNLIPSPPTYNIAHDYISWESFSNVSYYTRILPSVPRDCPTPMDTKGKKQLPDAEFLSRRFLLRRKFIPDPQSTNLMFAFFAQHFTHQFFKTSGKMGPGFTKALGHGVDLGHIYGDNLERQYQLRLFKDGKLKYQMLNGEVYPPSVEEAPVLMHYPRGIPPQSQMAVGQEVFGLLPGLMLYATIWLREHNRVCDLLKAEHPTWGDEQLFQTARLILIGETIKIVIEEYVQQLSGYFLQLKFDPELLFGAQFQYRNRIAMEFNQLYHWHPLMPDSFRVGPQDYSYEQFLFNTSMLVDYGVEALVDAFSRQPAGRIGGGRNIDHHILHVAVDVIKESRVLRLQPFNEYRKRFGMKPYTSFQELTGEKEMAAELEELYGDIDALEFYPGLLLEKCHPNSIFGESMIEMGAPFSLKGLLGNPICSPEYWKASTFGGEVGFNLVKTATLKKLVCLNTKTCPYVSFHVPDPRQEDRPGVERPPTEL
Description: Frozen sheep seminal vesicles are cleaned of fat and connective tissue and then minced. Ten grams of the minced tissue are homogenized in 20 ml. of 0.125 M Na-EDTA buffer, pH 8.3, employing polytron homogenizer. The homogenate is then centrifuged at 1,200×g. for 10 minutes and the resulting supernatant filtered through two layers of cheese cloth. The filtrate is then centrifuged at 10,000×g. for 20 minutes. The supernatant is then centrifuged at 105,000×g. for 1 hour. The precipitate is dissolved once with Na-EDTA buffer and recentrifuged at 105,000×g. for 1 hour. The final microsomal fraction is then dissolved in 1.0 ml. of Na-EDTA buffer and stored in a freezer.
The incubation buffer medium (1.0 ml. total) consists of 500 μg of lyophilized bovine serum albumin, 5×10^-4 M hydroquinone, 1.0×10^-2 M reduced glutathione, 3×10^-6 M^14 C arachidonic acid (AA) in 0.02 ml. of methanol, 0.01 ml. of the tested drugs in methanol at the desired concentrations, and the microsomal fraction (1.2 mg. protein/ml. incubation medium). This medium is incubated for one hour at 37° C. At the end of this period, enzyme reaction is terminated by the addition of 0.25 ml. of 1 N HCl. 15 μg of non-radioactive Prostaglandin E2 (PGE2), Prostaglandin F2α (PGF2α) and AA (5 μg each) in an ethanol solution is then added to all of the acidified reaction mixtures. The reaction products are extracted with ethylacetate (2×2 ml.) and the total organic solution of 4 ml. is washed with 1.0 ml. of triple distilled water. 3.0 ml. of the total ethylacetate solution is removed and evaporated to dryness under nitrogen gas. The residue is then re-dissolvedin 50 μl. of 100% ethanol and spotted on silica gel GF plates and subjected to chromatograph. Only the organic phase of the ethyl acetate:water:iso-octane:acetic acid system (11:10:5:2) is used as solvent in the chromatography system.
After exposure to iodine vapor, the PGE2 and AA spots are scraped from the TLC plate, put into separate vials, and mixed with 10.0 ml. of Instagel scintillation cocktail for counting in a Nuclear-Chicago Mark II liquid scintillation counter.
Results are expressed as counts per minute (cpm), evidencing in vitro PGE2 biosynthesis.

[4] = oral 2 mg/kg, Daily (0-15) except weekends
[5] = oral 6 mg/kg, Daily (0-15) except weekends
[6] = oral 18 mg/kg, Daily (0-15) except weekends

O=C(O)C=C1c2ccccc2C=Cc2ccccc21 [DCHA]
activity in short term dosing regimen ([1]; days 2, 3, 4): less so | activity in short term dosing regimen ([1]; days 8, 9, 10): active | % Change of Left Paw Edema at Day 16 [1, 4]: +12% | % Change of Right Paw Edema at Day 4 [1, 4]: +17% | Change In Body Weight (mean ± S.E.) 0-16 days [1, 4]: 8.9 ± 7.8 | Increase in Paw Volume 0-16 days (left paw) [1, 4]: 0.82 ± 0.18 | Increase in Right Paw Volume (ml.) 0-4 days [1, 4]: 1.60 ± 0.08 mL | % Change of Left Paw Edema at Day 16 [1, 5]: -16% | % Change of Right Paw Edema at Day 4 [1, 5]: -24% | Change In Body Weight (mean ± S.E.) 0-16 days [1, 5]: 6.0 ± 4.8 | Increase in Paw Volume 0-16 days (left paw) [1, 5]: 0.62 ± 0.04 | Increase in Right Paw Volume (ml.) 0-4 days [1, 5]: 1.03 ± 0.06 mL | % Change of Left Paw Edema at Day 16 ([1]; oral 10 mg/kg, Days 2,3,4): -22% | % Change of Right Paw Edema at Day 4 ([1]; oral 10 mg/kg, Days 2,3,4): -33% | Change In Body Weight (mean ± S.E.) 0-16 days ([1]; oral 10 mg/kg, Days 2,3,4): 14.7 ± 11.7 | Increase in Paw Volume 0-16 days (left paw) ([1]; oral 10 mg/kg, Days 2,3,4): 0.58 ± 0.13 | Increase in Right Paw Volume (ml.) 0-4 days ([1]; oral 10 mg/kg, Days 2,3,4): 0.92 ± 0.07 mL | % Change of Left Paw Edema at Day 16 ([1]; oral 10 mg/kg, Days 8,9,10): -58% | Change In Body Weight (mean ± S.E.) 0-16 days ([1]; oral 10 mg/kg, Days 8,9,10): 10.5 ± 7.9 | Increase in Paw Volume 0-16 days (left paw) ([1]; oral 10 mg/kg, Days 8,9,10): 0.31 ± 0.06 | % Change of Left Paw Edema at Day 16 [1, 6]: -65% | % Change of Right Paw Edema at Day 4 [1, 6]: -41% | Change In Body Weight (mean ± S.E.) 0-16 days [1, 6]: 18.3 ± 6.7 | Increase in Paw Volume 0-16 days (left paw) [1, 6]: 0.26 ± 0.05 | Increase in Right Paw Volume (ml.) 0-4 days [1, 6]: 0.81 ± 0.07 mL | gastric irritation ([2]; in words): neither causing gastric irritation nor affecting gastric secretions | effect on gastric secretion ([2]; in words, high doses): no effect on gastric secretion | gastric ulceration ([2]; rat, doses up to 480 mg/kg, in words): no gastric ulceration | Number of Animals With Gastric Swelling ([2]; rat, oral 60 mg/kg): 0/6 | Number of Animals With Gastric Ulcers ([2]; rat, oral 60 mg/kg): 0/6 | Number of Animals With Gastric Swelling ([2]; rat, oral 120 mg/kg): 0/6 | Number of Animals With Gastric Ulcers ([2]; rat, oral 120 mg/kg): 0/6 | Number of Animals With Gastric Swelling ([2]; rat, oral 240 mg/kg): 0/6 | Number of Animals With Gastric Ulcers ([2]; rat, oral 240 mg/kg): 0/6 | Number of Animals With Gastric Swelling ([2]; rat, oral 480 mg/kg): 0/6 | Number of Animals With Gastric Ulcers ([2]; rat, oral 480 mg/kg): 0/6 | cpm (× 1000), in vitro PGE2 biosynthesis ([3]; 30 μg/ml): 6.6 ± .3 cpm (× 1000) | cpm (× 1000), in vitro PGE2 biosynthesis ([3]; 50 μg/ml): 5.2 ± .4 cpm (× 1000) | cpm (× 1000), in vitro PGE2 biosynthesis ([3]; 60 μg/ml): 5.1 ± .2 cpm (× 1000) | cpm (× 1000), in vitro PGE2 biosynthesis ([3]; 100 μg/ml): 3.0 ± .1 cpm (× 1000) | cpm (× 1000), in vitro PGE2 biosynthesis ([3]; 120 μg/ml): 3.3 ± .4 cpm (× 1000) | cpm (× 1000), in vitro PGE2 biosynthesis ([3]; 150 μg/ml): 2.1 ± .3 cpm (× 1000) | cpm (× 1000), in vitro PGE2 biosynthesis ([3]; 200 μg/ml): 2.0 ± .1 cpm (× 1000) | IC50 ([3]; calculated from Table 6, read-out: 50% inhibitory concentration (converted)): 259 µM | inhibitory effect on prostaglandin synthetase activity ([3]; in words): does not have an appreciable inhibitory effect on prostaglandin synthetase activity
